{"source": "patent US20090131356A1", "about": "“miR-15, miR-26, miR-31, miR-145, miR-147, miR-188, miR-215, miR-216, miR-331, mmu-miR-292-3P REGULATED GENES AND PATHWAYS AS TARGETS FOR THERAPEUTIC INTERVENTION” (ASURAGEN, INC., priority 2006, published 2009)", "key": {"[1]": {"tested_on": "human H460 lung cancer xenografts", "assay": "Established H460 lung tumor xenograft, intratumoral injection of lipid-formulated miRNA", "type": "in vivo, NOD/SCID mice", "details": "intratumoral 6.25 μg on days 11, 14 and 17, siPORT amine formulation; day 19", "source_text": "Delivery of hsa-miR-147 into human lung cancer cells prior to implantation into the animal inhibited the formation of lung tumor xenografts. […] To explore this possibility, 3×10^6 human H460 non-small cell lung cancer cells were mixed with BD Matrigel™, (BD Biosciences; San Jose, Calif., USA; cat. no. 356237) in a 1:1 ratio and subcutaneously injected into the lower back of each of 23 NOD/SCID mice (Charles River Laboratories, Inc.; Wilmington, Mass., USA). Once animals developed palpable tumors (day 11 post xenograft implantation), each animal in a group of six received intratumoral injections of 6.25 μg hsa-miR-147 (Dharmacon, Lafayette, Colo.) formulated with the lipid-based siPORT™ amine delivery agent (Ambion, Austin, Tex.; cat. no. AM4502) on days 11, 14 and 17. A control group of six animals each received intratumoral injections of 6.25 μg negative control miRNA (NC; Dharmacon, Lafayette, Colo.), following the same injection schedule that was used for hsa-miR-147. Given an average mouse weight of 20 g, this dose equals 0.3125 mg/kg. […] Caliper measurements of tumors were taken every 1-2 days, and tumor volumes were calculated using the formula, Volume=length×width×width/2, in which the length is greater than the width."}, "Du145 cells": {"tested_on": "Du145 cells", "assay": "Alamar Blue proliferation assay, Du145", "type": "cell-based, human", "details": "30 nM, normalized to negative control miRNA (100% proliferation)", "source_text": "(§1) The inventors assessed the therapeutic effect of hsa-miR-147 for prostate cancer by using 4 individual human prostate cancer cell lines. To measure cellular proliferation of prostate cancer cells, the following prostate cancer cell lines were used: PPC-1 and PC3, derived from a bone metastasis; Du145, derived from a brain metastasis; RWPE2, derived from prostate cells immortalized by human papillomavirus 18 and transformed by the K-RAS oncogene (Bello et al., 1997; Stone et al., 1978; Brothman et al., 1991). PC3, PPC-1, and Du145 cells lack expression of the prostate-specific antigen (PSA) and are independent of androgen receptor (AR) signaling. In contrast, RWPE2 cells test positive for PSA and AR.\n(§2) PPC-1, Du145 and RWPE2 cells were transfected with synthetic hsa-miR-147 (Pre-miR™-hsa-miR-147, Ambion cat. no. AM17100) or negative control miRNA (NC; Pre-miR™ microRNA Precursor Molecule-Negative Control #2; Ambion cat. no. AM17111) in a 96-well format using a lipid-based transfection reagent. […] Proliferation was assessed 4-7 days post-transfection using Alamar Blue™ (Invitrogen) following the manufacturer's instructions. […] Fluorescent light units (FLU) were measured after 3 hours, normalized to the control, and plotted as percent change in proliferation. […]"}, "RWPE2 cells": {"tested_on": "RWPE2 cells", "assay": "Alamar Blue proliferation assay, RWPE2", "type": "cell-based, human", "details": "30 nM, normalized to negative control miRNA (100% proliferation)", "source_text": "as §1, §2"}, "[2]": {"tested_on": "human A549 lung cancer xenografts", "assay": "A549 lung cancer xenograft, cells electroporated with miRNA before implantation", "type": "in vivo, NOD/SCID mice", "details": "cells electroporated with 5 μg miRNA, injected subcutaneously; tumors measured days 14-20; vs negative control miRNA", "description": "The inventors assessed the growth-inhibitory activity of hsa-miR-147 in a human lung cancer xenograft grown in immunodeficient mice. Hsa-miR-147 was delivered into A549 lung cancer cells via electroporation using the BioRad GenePulserXcell™ instrument with the following settings: 15×10^6 cells with 5 μg miRNA in 200 μl OptiMEM, square wave pulse at 150 V for 10 ms. A total of 30×10^6 A549 cells was used to 5×10^6 electroporated cells were mixed with matrigel in a 1:1 ratio and injected subcutaneously into the flank of NOD/SCID mice. As a negative control, A549 cells were electroporated with negative control miRNA (pre-miR-NC#2, Ambion) as describe above. NC miRNA-treated cells were injected into the opposite flank of the same animal to control for animal-to-animal variability. A total of 30×10^6 A549 cells per hsa-miR-147 and NC was used to accommodate 5 injections into 5 animals. Size measurements of tumors started 14 days after injection once tumors have reached a measurable size. Length and width of tumors were determined every day for the following 6 days. Tumor volumes were calculated using the formula V=length×width^2/2 in which the length is greater than the width. Tumor volumes derived from NC-treated cells and hsa-miR-147-treated cells were averaged and plotted over time (FIG. 5). Standard deviations are shown in the graph. […]"}}, "data": [{"substance": "hsa-miR-147: Synthetic pre-miR-147 (Ambion AM17100; Dharmacon in vivo); mature sequence GUGUGUGGAAAUGCUUCUGC, MIMAT0000251, SEQ ID NO:114 (synthetic pre-miR (Ambion/Dharmacon), chemistry not given here; listed as Homo sapiens)", "values": [{"measurement": "average tumor size", "setting": "[1]", "value": 260, "unit": "mm^3"}, {"measurement": "% proliferation", "setting": "Du145 cells", "value": 61.50, "unit": "%"}, {"measurement": "% proliferation", "setting": "RWPE2 cells", "value": 79.08, "unit": "%"}, {"measurement": "tumor growth of A549 xenograft", "setting": "[2]", "value": "inhibited tumor growth in vivo"}]}]}
